In brackets after ≈: the same amount, converted by molar mass. Non-standard residues stand in square brackets, D forms with d. Residues, ends and D or L forms follow the SMILES beside them. hArg = N=C(N)NCCCC[C@H](N)C(=O)O; Orn = NCCC[C@H](N)C(=O)O
Legend:
M. luteus 10240 = assay: Growth inhibition assay (microdilution MIC); assay type: cell-based, Micrococcus luteus; conditions: 10240, 20 h
Procedure: (§1) The minimum inhibitory concentrations (MIC) of the antimicrobial peptides and peptide derivatives were determined in microdilution assays. These used a continuous peptide dilution in sterile flat-bottomed 96-well microtiter plates (polystyrene, Greiner Bio-One GmbH, Frickenhausen, Germany) and a total volume of 100 μL per well. The aqueous peptide or peptidomimetic solutions were diluted with 1% TSB water, to obtain a final concentration of 256 μg/mL. 50 μL of the peptide or peptidomimetic solution was pipetted into the first well of each series and stirred. From this solution, 50 μL was transferred to the second well, stirred and again 50 μL was transferred to the next well, and so on. A double dilution series is obtained, beginning at 256 μg/mL in the first well to 125 ng/mL in the twelfth well. The bacteria, e.g. E. coli BL21 A1, were cultured overnight at 37° C. in nutrient broth (NB, Carl Roth GmbH+Co. KG, Karlsruhe, Germany). 50 μL of a 5×10^6 bacteria/mL suspension in 1% TSB was added to each well of the microtiter plate and thus a final concentration of the peptides or peptidomimetics from 128 μg/mL (well 1) to 62.5 ng/mL (well 12) was established in each series. The plates were incubated at 37° C. for 20 h and then the absorption was measured at 595 nm with a TECAN microtiter plate spectrophotometer (Tecan Trading AG, Mannedorf, Switzerland). The MIC values of all peptides and peptidomimetics were determined in triplicate. Sterile water was used as negative control. The MIC value represents the lowest peptide concentration at which no bacterial growth is observed after an incubation time of 20 h at 37° C.
(§2) The MIC values of the peptides and peptide derivatives against Escherichia coli BL21 A1 and Micrococcus luteus ATCC 10240 are given in Table 7.

E. coli BL21 A1 = assay type: cell-based, Escherichia coli; conditions: BL21, 20 h
Procedure: as §1, §2

| SMILES | MIC M. luteus 10240 (M. luteus 10240) [µg/mL] | MIC E. coli BL21 A1 (E. coli BL21 A1) [µg/mL] |
| --- | --- | --- |
| CC[C@H](C)[C@H](NC(=O)[C@H](CCCNC(=N)N)NC(=O)[C@H](CCCNC(=N)N)NC(=O)[C@@H]1CCCN1C(=O)[C@@H]1CCCN1C(=O)[C@H](CCCNC(=N)N)NC(=O)[C@@H]1CCCN1C(=O)[C@H](CCCNC(=N)N)NC(=O)[C@@H]1CCCN1C(=O)[C@H](CC(C)C)NC(=O)[C@H](Cc1ccc(O)cc1)NC(=O)[C@@H]1CCCN1C(=O)[C@@H]1CCCN1C(=O)[C@H](CCCCN)NC(=O)[C@H](CC(=O)O)NC(=O)[C@@H](NC(=O)[C@@H](CS)NC(=O)[C@H](C)N)C(C)C)C(=O)N[C@@H](Cc1ccc(O)cc1)C(=O)N[C@@H](CC(N)=O)C(=O)N[C@@H](CCCNC(=N)N)C(=O)O [compound 80] (H-A[dC]VDKPPYLPRPRPPRRIYNR-OH) | 16 (≈ 6.24 µM) | >256 |
| CC[C@H](C)[C@H](NC(=O)[C@H](CCCNC(=N)N)NC(=O)[C@H](CCCNC(=N)N)NC(=O)[C@@H]1CCCN1C(=O)[C@@H]1CCCN1C(=O)[C@H](CCCNC(=N)N)NC(=O)[C@@H]1CCCN1C(=O)[C@H](CCCNC(=N)N)NC(=O)[C@@H]1CCCN1C(=O)[C@H](CC(C)C)NC(=O)[C@H](Cc1ccc(O)cc1)NC(=O)[C@@H]1CCCN1C(=O)[C@@H]1CCCN1C(=O)[C@H](CCCCN)NC(=O)[C@H](CC(=O)O)NC(=O)[C@H](CCCN)NC(=O)[C@@H](CS)NC(=O)[C@H](C)N)C(=O)N[C@@H](Cc1ccc(O)cc1)C(=O)N[C@@H](CC(N)=O)C(=O)N[C@@H](CCCNC(=N)N)C(N)=O [compound 83] (H-A[dC][Orn]DKPPYLPRPRPPRRIYNR-NH2) | 16 (≈ 6.2 µM) | 16 (≈ 6.2 µM) |
| CC[C@H](C)[C@H](NC(=O)[C@H](Cc1ccc(O)cc1)NC(=O)[C@H](CC(N)=O)NC(=O)[C@@H](N)CCCN)C(=O)N[C@@H](CCCN)C(=O)N[C@@H](CCCNC(=N)N)C(=O)N1CCC[C@H]1C(=O)N1CCC[C@H]1C(=O)N[C@@H](CCCNC(=N)N)C(=O)N1CCC[C@H]1C(=O)N[C@@H](CCCNC(=N)N)C(=O)N1CCC[C@H]1C(=O)N[C@@H](CC(C)C)C(=O)N[C@@H](Cc1ccc(O)cc1)C(=O)N1CCC[C@H]1C(=O)N1CCC[C@H]1C(=O)N[C@@H](CCCCN)C(=O)N[C@@H](CC(=O)O)C(=O)N[C@H](C(N)=O)C(C)C [compound 113] (H-[Orn]NYI[Orn]RPPRPRPLYPPKDV-NH2) | 64 (≈ 27.8 µM) | >256 |

The next lines start with the values.

| MIC M. luteus 10240 (M. luteus 10240) [µg/mL] | MIC E. coli BL21 A1 (E. coli BL21 A1) [µg/mL] | SMILES |
| --- | --- | --- |
| 4 (≈ 1.69 µM) | 4 (≈ 1.69 µM) | CC[C@H](C)[C@H](NC(=O)[C@H](CCCN)NC(=O)[C@H](CCCNC(=N)N)NC(=O)[C@@H]1CCCN1C(=O)[C@@H]1CCCN1C(=O)[C@H](CCCNC(=N)N)NC(=O)[C@@H]1CCCN1C(=O)[C@H](CCCNC(=N)N)NC(=O)[C@@H]1CCCN1C(=O)[C@H](CC(C)C)NC(=O)[C@H](Cc1ccc(O)cc1)NC(=O)[C@@H]1CCCN1C(=O)[C@@H]1CCCN1C(=O)[C@H](CCCCN)NC(=O)[C@H](CC(=O)O)NC(=O)[C@@H](N)C(C)C)C(=O)N[C@@H](Cc1ccc(O)cc1)C(=O)N[C@@H](CC(N)=O)C(=O)N[C@@H](CCCCNC(=N)N)C(N)=O [compound 70] (H-VDKPPYLPRPRPPR[Orn]IYN[hArg]-NH2) |
| 8 (≈ 3.33 µM) | 8 (≈ 3.33 µM) | CC[C@H](C)[C@H](NC(=O)[C@H](CCCNC(=N)N)NC(=O)[C@H](CCCNC(=N)N)NC(=O)[C@@H]1CCCN1C(=O)[C@@H]1CCCN1C(=O)[C@H](CCCNC(=N)N)NC(=O)[C@@H]1CCCN1C(=O)[C@H](CCCNC(=N)N)NC(=O)[C@@H]1CCCN1C(=O)[C@H](CC(C)C)NC(=O)[C@H](Cc1ccc(O)cc1)NC(=O)[C@@H]1CCCN1C(=O)[C@@H]1CCCN1C(=O)[C@H](CCCCN)NC(=O)[C@H](CC(=O)O)NC(=O)[C@@H](N)CCCN)C(=O)N[C@@H](Cc1ccc(O)cc1)C(=O)N[C@@H](CC(N)=O)C(=O)N[C@@H](CCCNC(=N)N)C(N)=O [compound 82] (H-[Orn]DKPPYLPRPRPPRRIYNR-NH2) |
